ChEMBL document CHEMBL1649393, “Synthesis and antimicrobial activity of thiosemicarbazides, s-triazoles and their Mannich bases bearing 3-chlorophenyl moiety” (2011)
In brackets after ≈: the same amount, converted by molar mass.

How the values were obtained:
Assay type in all cases: functional
[1] = test system: Bacillus subtilis; experiment: Antimicrobial activity against Bacillus subtilis ATCC […] after 18 hrs by broth microdilution method
[2] = test system: Bacillus cereus; experiment: Antimicrobial activity against Bacillus cereus ATCC 10876 after 18 hrs by broth microdilution method; conditions: ATCC 10876, 18 h
[3] = test system: Micrococcus luteus; experiment: Antimicrobial activity against Micrococcus luteus ATCC 10240 after 18 hrs by broth microdilution method; conditions: ATCC 10240, 18 h
[4] = test system: Staphylococcus aureus; experiment: Antimicrobial activity against Staphylococcus aureus ATCC 25923 after 18 hrs by broth microdilution method; conditions: ATCC 25923, 18 h
[5] = test system: Staphylococcus epidermidis; experiment: Antimicrobial activity against Staphylococcus epidermidis ATCC 12228 after 18 hrs by broth microdilution method; conditions: ATCC 12228, 18 h
[6] = test system: Staphylococcus aureus; experiment: Antimicrobial activity against Staphylococcus aureus ATCC 6538 after 18 hrs by broth microdilution method; conditions: ATCC 6538, 18 h
[7] = test system: Bacillus subtilis; experiment: Antimicrobial activity against Bacillus subtilis ATCC […] assessed as >99.9 % reduction in CFU after 18 hrs by broth microdilution method
[8] = test system: Micrococcus luteus; experiment: Antimicrobial activity against Micrococcus luteus ATCC 10240 assessed as >99.9 % reduction in CFU after 18 hrs by broth microdilution method; conditions: ATCC 10240, 18 h
[9] = test system: Proteus mirabilis; experiment: Antimicrobial activity against Proteus mirabilis ATCC 12453 assessed as >99.9 % reduction in CFU after 18 hrs by broth microdilution method; conditions: ATCC 12453, 18 h, read-out: MBC
[10] = test system: Escherichia coli; experiment: Antimicrobial activity against Escherichia coli ATCC 25922 after 18 hrs by broth microdilution method; conditions: ATCC 25922, 18 h
[11] = test system: Bacillus cereus; experiment: Antimicrobial activity against Bacillus cereus ATCC 10876 assessed as >99.9 % reduction in CFU after 18 hrs by broth microdilution method; conditions: ATCC 10876, 18 h
[12] = test system: Staphylococcus aureus; experiment: Antimicrobial activity against Staphylococcus aureus ATCC 25923 assessed as >99.9 % reduction in CFU after 18 hrs by broth microdilution method; conditions: ATCC 25923, 18 h
[13] = test system: Staphylococcus epidermidis; experiment: Antimicrobial activity against Staphylococcus epidermidis ATCC 12228 assessed as >99.9 % reduction in CFU after 18 hrs by broth microdilution method; conditions: ATCC 12228, 18 h
[14] = test system: Klebsiella pneumoniae; experiment: Antimicrobial activity against Klebsiella pneumoniae ATCC 13883 assessed as >99.9 % reduction in CFU after 18 hrs by broth microdilution method; conditions: ATCC 13883, 18 h, read-out: MBC
[15] = test system: Klebsiella pneumoniae; experiment: Antimicrobial activity against Klebsiella pneumoniae ATCC 13883 after 18 hrs by broth microdilution method; conditions: ATCC 13883, 18 h
[16] = test system: Staphylococcus aureus; experiment: Antimicrobial activity against Staphylococcus aureus ATCC 6538 assessed as >99.9 % reduction in CFU after 18 hrs by broth microdilution method; conditions: ATCC 6538, 18 h
[17] = test system: Proteus mirabilis; experiment: Antimicrobial activity against Proteus mirabilis ATCC 12453 after 18 hrs by broth microdilution method; conditions: ATCC 12453, 18 h, read-out: MIC
[18] = test system: Escherichia coli; experiment: Antimicrobial activity against Escherichia coli ATCC 25922 assessed as >99.9 % reduction in CFU after 18 hrs by broth microdilution method; conditions: ATCC 25922, 18 h

Row | MIC [1] [µg/mL] | MIC [2] [µg/mL] | MIC [3] [µg/mL] | MIC [4] [µg/mL] | MIC [5] [µg/mL] | MIC [6] [µg/mL] | MIC [10] [µg/mL] | MIC [15] [µg/mL] | MIC [17] [µg/mL] | Structure (SMILES) | MBC [7] [µg/mL] | MBC [8] [µg/mL] | MBC [9] [µg/mL] | MBC [11] [µg/mL] | MBC [12] [µg/mL] | MBC [13] [µg/mL] | MBC [14] [µg/mL] | MBC [16] [µg/mL] | MBC [18] [µg/mL]
1 | 125 (≈ 409 µM) | 125 (≈ 409 µM) | 125 (≈ 409 µM) | 125 (≈ 409 µM) | 125 (≈ 409 µM) | 125 (≈ 409 µM) |  |  |  | O=C(NNC(=S)Nc1ccccc1)c1cccc(Cl)c1 |  |  |  |  |  |  |  |  | 
2 | 125 (≈ 372 µM) | 125 (≈ 372 µM) | 62.5 (≈ 186 µM) | 62.5 (≈ 186 µM) | 125 (≈ 372 µM) | 125 (≈ 372 µM) |  |  |  | COc1ccc(NC(=S)NNC(=O)c2cccc(Cl)c2)cc1 |  |  |  |  |  |  |  |  | 
3 | > 1000 | > 1000 | > 1000 | > 1000 | > 1000 | > 1000 |  |  |  | Fc1ccc(-n2c(-c3cccc(Cl)c3)n[nH]c2=S)cc1 |  |  |  |  |  |  |  |  | 
4 | > 1000 | > 1000 | > 1000 | > 1000 | > 1000 | > 1000 |  |  |  | COc1ccc(-n2c(-c3cccc(Cl)c3)n[nH]c2=S)cc1 |  |  |  |  |  |  |  |  | 
5 | 125 (≈ 325 µM) | 62.5 (≈ 162 µM) | 62.5 (≈ 162 µM) | 62.5 (≈ 162 µM) | 125 (≈ 325 µM) | 31.2 (≈ 81.2 µM) |  |  |  | O=C(NNC(=S)Nc1ccccc1Br)c1cccc(Cl)c1 |  |  |  |  |  |  |  |  | 
6 | 62.5 (≈ 139 µM) | 62.5 (≈ 139 µM) | 62.5 (≈ 139 µM) | 31.2 (≈ 69.5 µM) | 250 (≈ 556 µM) | 62.5 (≈ 139 µM) | > 1000 | > 1000 | > 1000 | S=c1n(CN2CCCC2)nc(-c2cccc(Cl)c2)n1-c1ccc(Br)cc1 | 500 (≈ 1110 µM) | > 1000 | > 1000 | > 1000 | > 1000 | > 1000 | > 1000 | > 1000 | > 1000
7 | 31.2 (≈ 75.5 µM) | 250 (≈ 604 µM) | > 1000 | 250 (≈ 604 µM) | 250 (≈ 604 µM) | 500 (≈ 1210 µM) |  |  |  | S=c1[nH]nc(-c2cccc(Cl)c2)n1-c1ccc(I)cc1 |  |  |  |  |  |  |  |  | 
8 | 125 (≈ 366 µM) | 125 (≈ 366 µM) | 62.5 (≈ 183 µM) | 62.5 (≈ 183 µM) | 125 (≈ 366 µM) | 62.5 (≈ 183 µM) |  |  |  | O=C(NNC(=S)Nc1cc(F)ccc1F)c1cccc(Cl)c1 |  |  |  |  |  |  |  |  | 
9 | 31.2 (≈ 91.8 µM) | 62.5 (≈ 184 µM) | 31.2 (≈ 91.8 µM) | 31.2 (≈ 91.8 µM) | 31.2 (≈ 91.8 µM) | 31.2 (≈ 91.8 µM) |  |  |  | O=C(NNC(=S)Nc1ccc(Cl)cc1)c1cccc(Cl)c1 |  |  |  |  |  |  |  |  | 

The next lines start with the compound.

Row | Structure (SMILES) | MIC [1] [µg/mL] | MIC [2] [µg/mL] | MIC [3] [µg/mL] | MIC [4] [µg/mL] | MIC [5] [µg/mL] | MIC [6] [µg/mL] | MIC [10] [µg/mL] | MIC [15] [µg/mL] | MIC [17] [µg/mL] | MBC [7] [µg/mL] | MBC [8] [µg/mL] | MBC [9] [µg/mL] | MBC [11] [µg/mL] | MBC [12] [µg/mL] | MBC [13] [µg/mL] | MBC [14] [µg/mL] | MBC [16] [µg/mL] | MBC [18] [µg/mL]
10 | S=c1[nH]nc(-c2cccc(Cl)c2)n1-c1ccc(Br)cc1 | 15.6 (≈ 42.6 µM) | 15.6 (≈ 42.6 µM) | 31.2 (≈ 85.2 µM) | 31.2 (≈ 85.2 µM) | 31.2 (≈ 85.2 µM) | 31.2 (≈ 85.2 µM) |  |  |  |  |  |  |  |  |  |  |  | 
11 | COc1ccc(-n2c(-c3cccc(Cl)c3)nn(CN3CCCC3)c2=S)cc1 | 250 (≈ 624 µM) | 125 (≈ 312 µM) | 125 (≈ 312 µM) | 125 (≈ 312 µM) | 250 (≈ 624 µM) | 250 (≈ 624 µM) | 250 (≈ 624 µM) | 250 (≈ 624 µM) | 500 (≈ 1250 µM) | 500 (≈ 1250 µM) | 1000 (≈ 2490 µM) | > 1000 | > 1000 | 500 (≈ 1250 µM) | 1000 (≈ 2490 µM) | 500 (≈ 1250 µM) | 500 (≈ 1250 µM) | 500 (≈ 1250 µM)
12 | S=c1[nH]nc(-c2cccc(Cl)c2)n1-c1ccccc1Br | 1000 (≈ 2730 µM) | 1000 (≈ 2730 µM) | > 1000 | > 1000 | 125 (≈ 341 µM) | > 1000 |  |  |  |  |  |  |  |  |  |  |  | 
13 | S=c1[nH]nc(-c2cccc(Cl)c2)n1-c1ccccc1I | > 1000 | > 1000 | > 1000 | > 1000 | > 1000 | > 1000 |  |  |  |  |  |  |  |  |  |  |  | 
14 | O=C(NNC(=S)Nc1ccccc1I)c1cccc(Cl)c1 | 15.6 (≈ 36.2 µM) | 31.2 (≈ 72.4 µM) | 31.2 (≈ 72.4 µM) | 31.2 (≈ 72.4 µM) | 31.2 (≈ 72.4 µM) | 31.2 (≈ 72.4 µM) |  |  |  |  |  |  |  |  |  |  |  | 
15 | S=c1[nH]nc(-c2cccc(Cl)c2)n1-c1ccc(Cl)cc1 | 125 (≈ 388 µM) | 125 (≈ 388 µM) | 125 (≈ 388 µM) | 125 (≈ 388 µM) | 125 (≈ 388 µM) | 125 (≈ 388 µM) |  |  |  |  |  |  |  |  |  |  |  | 
